Laboratory results published in patent publication US8470841B2, “Heterocyclic compounds, processes for their preparation, medicaments comprising these compounds, and the use thereof” (Sanofi, priority 2008, dated 2013).
Where two headings read alike, the source gives them in different places.

What was measured:
human ACC2 = human ACC2 (Homo sapiens (Human), UniProt O00763); format: biochemical; settings: for IC50: human ACC2, read-out: IC50 (hACC2)
rACC2 = rACC2 (Rattus norvegicus, UniProt O70151); test: Enzymatic assay of ACC inhibitors, rat ACC2; format: biochemical
Sequence of rACC2 (O70151 1-2456): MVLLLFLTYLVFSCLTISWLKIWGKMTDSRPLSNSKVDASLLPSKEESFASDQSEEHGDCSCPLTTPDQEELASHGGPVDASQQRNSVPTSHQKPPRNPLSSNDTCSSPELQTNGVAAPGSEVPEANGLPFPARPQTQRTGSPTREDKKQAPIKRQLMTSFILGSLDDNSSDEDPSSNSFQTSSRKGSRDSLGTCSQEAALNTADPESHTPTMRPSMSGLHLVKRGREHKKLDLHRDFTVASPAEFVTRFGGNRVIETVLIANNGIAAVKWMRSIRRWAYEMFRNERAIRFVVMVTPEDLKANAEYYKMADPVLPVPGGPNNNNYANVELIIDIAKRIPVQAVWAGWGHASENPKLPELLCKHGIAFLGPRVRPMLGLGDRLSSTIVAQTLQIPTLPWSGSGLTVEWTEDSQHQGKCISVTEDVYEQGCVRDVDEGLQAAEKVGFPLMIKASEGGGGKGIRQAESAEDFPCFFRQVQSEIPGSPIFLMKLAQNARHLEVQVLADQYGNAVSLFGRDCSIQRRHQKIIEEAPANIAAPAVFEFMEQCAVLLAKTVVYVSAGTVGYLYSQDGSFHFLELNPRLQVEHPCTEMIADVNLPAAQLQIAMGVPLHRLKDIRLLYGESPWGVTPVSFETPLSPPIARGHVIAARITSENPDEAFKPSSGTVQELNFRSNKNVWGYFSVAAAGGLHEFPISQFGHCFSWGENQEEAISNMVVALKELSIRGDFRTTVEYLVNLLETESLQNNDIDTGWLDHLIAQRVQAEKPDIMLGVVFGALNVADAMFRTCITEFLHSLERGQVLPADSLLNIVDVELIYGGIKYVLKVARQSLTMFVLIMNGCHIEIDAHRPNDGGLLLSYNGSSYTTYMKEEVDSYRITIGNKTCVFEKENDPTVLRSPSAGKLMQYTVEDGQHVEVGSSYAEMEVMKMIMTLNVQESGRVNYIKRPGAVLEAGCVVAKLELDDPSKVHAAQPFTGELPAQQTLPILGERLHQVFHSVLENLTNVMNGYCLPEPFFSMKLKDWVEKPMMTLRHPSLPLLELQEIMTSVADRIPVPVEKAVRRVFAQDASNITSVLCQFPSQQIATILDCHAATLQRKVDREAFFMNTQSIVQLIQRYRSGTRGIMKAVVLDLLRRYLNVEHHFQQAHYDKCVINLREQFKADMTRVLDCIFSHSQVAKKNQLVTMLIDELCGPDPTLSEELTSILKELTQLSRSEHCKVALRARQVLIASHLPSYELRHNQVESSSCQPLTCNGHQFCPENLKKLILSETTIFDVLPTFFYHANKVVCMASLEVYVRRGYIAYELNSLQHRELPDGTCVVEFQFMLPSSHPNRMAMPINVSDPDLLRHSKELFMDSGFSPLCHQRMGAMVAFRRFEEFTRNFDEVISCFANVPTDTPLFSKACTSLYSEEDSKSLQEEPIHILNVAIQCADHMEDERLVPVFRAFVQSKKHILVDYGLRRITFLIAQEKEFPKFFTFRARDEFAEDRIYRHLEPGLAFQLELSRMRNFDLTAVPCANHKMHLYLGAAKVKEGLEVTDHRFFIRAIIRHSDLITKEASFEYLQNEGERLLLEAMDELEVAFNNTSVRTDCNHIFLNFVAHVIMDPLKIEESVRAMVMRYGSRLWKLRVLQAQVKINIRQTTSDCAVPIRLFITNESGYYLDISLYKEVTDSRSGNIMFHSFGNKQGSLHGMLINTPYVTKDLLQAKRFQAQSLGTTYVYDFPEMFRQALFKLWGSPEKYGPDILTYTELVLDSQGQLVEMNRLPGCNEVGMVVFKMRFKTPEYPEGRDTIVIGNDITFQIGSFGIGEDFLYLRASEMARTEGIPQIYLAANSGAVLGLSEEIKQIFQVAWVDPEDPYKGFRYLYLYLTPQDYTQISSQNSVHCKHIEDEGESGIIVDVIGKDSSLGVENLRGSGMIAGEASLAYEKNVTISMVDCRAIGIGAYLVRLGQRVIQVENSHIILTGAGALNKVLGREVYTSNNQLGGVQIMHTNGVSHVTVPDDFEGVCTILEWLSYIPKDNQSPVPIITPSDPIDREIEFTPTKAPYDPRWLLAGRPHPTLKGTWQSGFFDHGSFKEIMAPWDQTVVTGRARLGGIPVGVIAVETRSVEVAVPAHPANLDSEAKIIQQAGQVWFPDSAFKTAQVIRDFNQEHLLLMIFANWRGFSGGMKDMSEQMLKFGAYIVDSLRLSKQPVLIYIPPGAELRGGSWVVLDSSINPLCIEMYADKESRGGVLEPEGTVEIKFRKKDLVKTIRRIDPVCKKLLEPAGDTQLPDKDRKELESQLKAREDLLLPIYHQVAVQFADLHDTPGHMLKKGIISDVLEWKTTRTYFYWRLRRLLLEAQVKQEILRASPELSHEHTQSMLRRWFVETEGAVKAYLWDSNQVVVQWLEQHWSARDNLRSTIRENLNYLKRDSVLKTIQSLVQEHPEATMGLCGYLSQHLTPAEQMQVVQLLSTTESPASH
Experimental: (§1) The enzymatic activity of ACC and its inhibition by test substances were determined by a luminometric assay. The reaction mixture contained 50 mM tris acetate (Merck, #1.08382.1000), pH 7.5, 250 μM acetyl coenzyme A (Sigma, #A2181),16 mM NaHCO3 (Merck, #1.06329.0500), 0.9 mg/ml bovine serum albumin (Sigma, #A8806), 25 μM ATP (Sigma, #A7699), 1.1 μM β-mercaptoethanol (Roth, #4227,1), 4.3 mM magnesium acetate ((Merck, #1.05819.0250), 10 mM sodium citrate (Merck, #1.06448.0500) and 200-400 ng of the ACC preparations. The mixture also contained a test compound. The test compounds were each dissolved in 10 mM DMSO and were assayed at final concentrations of 0 μM, 0.01 μM, 0.03 μM, 0.1 μM, 0.3 μM, 1 μM, 3 μM, 10 μM, 30 μM and 100 μM. The final concentration of the DMSO in the assay was 0.1% (v/v). The reaction was started by adding ACC and was carried out at 37° C. for 90 min. The reaction was then stopped by adding 150 μl of 0.5 M tris acetate. 10 μl of the mixture were removed and mixed with 90 μl of ATP monitoring reagent (Cambrex, #LT27-002). After incubation for 10 min, the luminescence was measured in a luminometer (Tecan Genios Pro).
The crude luminescence data were transferred into a Microsoft Excel file. The luminescence measured in the absence of ACC in the reaction mixture was defined as 100%. The value in the presence of ACC with 0 μM test compound was set at 0%. Dose-effect plots were calculated with the XL.Fit program as specified by the producer (IDBS). The IC50 of a test substance was the concentration of the test compound at which a luminescence of 50% was measured.

rACC1 = rACC1 (Rattus norvegicus (Rat), UniProt P11497); test: Enzymatic assay of ACC inhibitors, rat ACC1; format: biochemical
Experimental: as §1, with “10 μl of the mixture were removed and mixed with 90 μl of ATP monitoring reagent (Cambrex, #LT27-002).” left out
The crude luminescence data were transferred into a Microsoft Excel file. The luminescence measured in the absence of ACC in the reaction mixture was defined as 100%. […] Dose-effect plots were calculated with the XL.Fit program as specified by the producer (IDBS). […]

[1] = system: C2C12 mouse muscle cell line; test: Palmitate oxidation in a mouse muscle cell line (C2C12); format: cell-based; settings: 10 μM
Experimental: In another pharmacological test both compounds were tested for palmitate oxidation in a mouse muscle cell line (C2C12) which is also mediated by ACC inhibition.

human ACC1 = human ACC1 (Homo sapiens (Human), UniProt Q13085)
[2] = relative to comparative example 59
[3] = relative to comparative example 59, respective rat ACC isoforms

Sequence of human ACC2 (O00763 151-2458): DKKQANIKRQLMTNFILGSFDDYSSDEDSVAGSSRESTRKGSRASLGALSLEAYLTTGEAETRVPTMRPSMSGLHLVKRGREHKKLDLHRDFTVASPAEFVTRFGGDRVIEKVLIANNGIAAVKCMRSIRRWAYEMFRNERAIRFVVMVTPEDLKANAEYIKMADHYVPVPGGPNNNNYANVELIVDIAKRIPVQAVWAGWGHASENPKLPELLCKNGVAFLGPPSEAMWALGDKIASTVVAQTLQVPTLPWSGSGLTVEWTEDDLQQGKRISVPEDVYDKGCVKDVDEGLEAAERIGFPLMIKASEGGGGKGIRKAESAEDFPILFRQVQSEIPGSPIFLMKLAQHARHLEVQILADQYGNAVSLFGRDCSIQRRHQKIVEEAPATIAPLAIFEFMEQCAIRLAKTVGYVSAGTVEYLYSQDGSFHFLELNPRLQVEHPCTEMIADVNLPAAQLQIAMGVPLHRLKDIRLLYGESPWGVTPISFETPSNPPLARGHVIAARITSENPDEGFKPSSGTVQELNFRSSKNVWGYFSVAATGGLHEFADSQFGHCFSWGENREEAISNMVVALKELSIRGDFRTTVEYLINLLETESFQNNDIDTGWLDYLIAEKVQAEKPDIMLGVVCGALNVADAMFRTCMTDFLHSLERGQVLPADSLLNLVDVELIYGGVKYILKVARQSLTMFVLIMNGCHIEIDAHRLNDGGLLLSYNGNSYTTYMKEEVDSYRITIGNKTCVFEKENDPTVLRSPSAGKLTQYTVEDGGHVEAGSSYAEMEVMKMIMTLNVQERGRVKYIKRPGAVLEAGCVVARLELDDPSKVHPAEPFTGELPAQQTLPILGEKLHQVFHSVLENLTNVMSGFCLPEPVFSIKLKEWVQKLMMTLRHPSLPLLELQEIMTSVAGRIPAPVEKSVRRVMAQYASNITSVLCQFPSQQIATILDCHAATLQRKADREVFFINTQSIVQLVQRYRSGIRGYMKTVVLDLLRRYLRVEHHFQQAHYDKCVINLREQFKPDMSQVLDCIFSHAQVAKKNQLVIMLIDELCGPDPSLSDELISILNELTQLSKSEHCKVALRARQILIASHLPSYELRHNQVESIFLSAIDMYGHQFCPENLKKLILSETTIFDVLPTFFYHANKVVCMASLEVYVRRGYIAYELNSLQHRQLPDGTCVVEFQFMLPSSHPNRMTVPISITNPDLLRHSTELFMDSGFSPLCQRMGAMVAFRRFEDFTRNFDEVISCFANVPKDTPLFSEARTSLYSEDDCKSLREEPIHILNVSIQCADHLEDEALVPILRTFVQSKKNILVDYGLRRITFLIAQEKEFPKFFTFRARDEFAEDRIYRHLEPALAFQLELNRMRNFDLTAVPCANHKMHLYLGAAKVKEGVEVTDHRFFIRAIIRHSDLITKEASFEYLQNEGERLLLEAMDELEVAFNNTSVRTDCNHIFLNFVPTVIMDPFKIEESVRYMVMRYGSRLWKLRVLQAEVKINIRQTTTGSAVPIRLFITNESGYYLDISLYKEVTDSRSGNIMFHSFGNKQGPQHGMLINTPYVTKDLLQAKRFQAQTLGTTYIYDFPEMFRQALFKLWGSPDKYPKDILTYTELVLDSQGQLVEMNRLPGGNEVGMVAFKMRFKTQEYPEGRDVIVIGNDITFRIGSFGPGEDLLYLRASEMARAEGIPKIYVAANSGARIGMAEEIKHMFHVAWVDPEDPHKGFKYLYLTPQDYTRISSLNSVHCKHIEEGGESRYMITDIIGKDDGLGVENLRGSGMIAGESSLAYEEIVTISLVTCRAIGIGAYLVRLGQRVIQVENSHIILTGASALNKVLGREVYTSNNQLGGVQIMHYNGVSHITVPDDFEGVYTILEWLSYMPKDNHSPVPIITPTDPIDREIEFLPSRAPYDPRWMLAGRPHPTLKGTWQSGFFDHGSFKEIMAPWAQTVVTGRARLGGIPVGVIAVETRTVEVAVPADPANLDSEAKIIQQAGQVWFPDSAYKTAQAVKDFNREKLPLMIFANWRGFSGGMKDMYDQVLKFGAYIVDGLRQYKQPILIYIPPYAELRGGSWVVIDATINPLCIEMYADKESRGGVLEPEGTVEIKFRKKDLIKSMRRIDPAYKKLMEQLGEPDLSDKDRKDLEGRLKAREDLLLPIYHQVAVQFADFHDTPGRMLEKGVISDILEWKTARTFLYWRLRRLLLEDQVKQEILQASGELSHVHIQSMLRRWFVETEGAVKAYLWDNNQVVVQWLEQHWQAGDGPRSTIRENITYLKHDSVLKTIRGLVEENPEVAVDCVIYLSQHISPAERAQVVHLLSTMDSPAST

IC50 (human ACC2) [nM]	Structure (SMILES)	also measured
90	CC(CCc1ccc(Oc2ccc(OC(C)C)nc2)cc1)NC(=O)C1CC1 (centres unmarked) [Example 44, N-{3-[4-(6-Isopropoxypyridin-3-yloxy)phenyl]-1-methylpropyl}cyclopropanecarboxamide]	–
5900	CC(=O)NC(C)CCc1cnc(Oc2ccc(OCc3ccccc3)nc2)nc1 (centres unmarked) [Example 37, N-{3-[2-(6-Benzyloxypyridin-3-yloxy)pyrimidin-5-yl]-1-methylpropyl}acetamide]	–
740	CC(=O)NC(C)CCc1ccc(Oc2cnc(OC(C)C)nc2)cc1 (centres unmarked) [Example 40, N-{3-[4-(2-Isopropoxypyrimidin-5-yloxy)phenyl]-1-methylpropyl}acetamide]	–
1200	CC(=O)NC(C)CCc1ccc(Oc2cnc(OC(C)C)cn2)cc1 (centres unmarked) [Example 49, N-{3-[4-(5-Isopropoxypyrazin-2-yloxy)phenyl]-1-methylpropyl}acetamide]	–
80	CC(=O)NC(C)CCC1CCC(Oc2ccc(OC(C)C)nc2)CC1 (centres unmarked) [Example 52, N-{3-[4-(6-Isopropoxypyridin-3-yloxy)cyclohexyl]-1-methylpropyl}acetamide]	–
670	CC(CCc1ccc(Oc2ccc(OC(C)C)nc2)cc1)NC=O (centres unmarked) [Example 45, N-{3-[4-(6-Isopropoxypyridin-3-yloxy)phenyl]-1-methylpropyl}formamide]	–
170	CC(=O)NC(C)CCc1ccc(Oc2ccc(OCC3CC3)nc2)cc1 (centres unmarked) [Example 50, N-{3-[4-(6-Cyclopropylmethoxypyridin-3-yloxy)phenyl]-1-methylpropyl}acetamide]	–
30	CC(=O)N[C@@H](C)CCc1ccc(Oc2ccc(OC(C)C)nc2)cc1 [Example 35, N—{(S)-3-[4-(6-Isopropoxypyridin-3-yloxy)phenyl]-1-methylpropyl}acetamide]	times higher potency than example 59, human ACC2 (human ACC2; [2]): approx. 5 times; IC50 (rACC2; rat ACC2, read-out: IC50 rACC2): 400 nM; times higher potency than example 59, rat ACC2 (rACC2; [3]): > 3 times; IC50 (rACC1; rat ACC1): 170 nM; times higher potency than example 59, rat ACC1 (rACC1; [3]): > 3 times; stimulation of cellular fat (palmitate) oxidation [1]: 1.7 fold; IC50 (human ACC1; read-out: IC50 hACC (human ACC1), human ACC1, table row printed as hACC): 190 nM; times higher potency than example 59, human ACC1 (human ACC1; [2]): ~40 times
2500	CC(=O)N[C@@H](C)COc1ccc(Oc2ccc(OC(C)C)cc2)nc1 [Example 39, N—{(S)-2-[6-(4-Isopropoxyphenoxy)pyridin-3-yloxy]-1-methylethyl}acetamide]	–
900	CC(CCc1ccc(Oc2ccc(OC(C)C)nc2)cc1)NC(=O)CO (centres unmarked) [Example 48, 2-Hydroxy-N-{3-[4-(6-isopropoxypyridin-3-yloxy)phenyl]-1-methylpropyl}acetamide]	–
150	CC(CCc1ccc(Oc2ccc(OC(C)C)nc2)cc1)NC(N)=O (centres unmarked) [Example 47, {3-[4-(6-Isopropoxypyridin-3-yloxy)phenyl]-1-methylpropyl}urea]	–
210	COC(=O)NC(C)CCc1ccc(Oc2ccc(OC(C)C)nc2)cc1 (centres unmarked) [Example 46, Methyl {3-[4-(6-isopropoxypyridin-3-yloxy)phenyl]-1-methylpropyl}carbamate]	–
70	CC(=O)NC(C)CCc1ccc(Oc2ccc(OCc3ccccc3)nc2)cc1 (centres unmarked) [Example 36, N-{3-[4-(6-Benzyloxypyridin-3-yloxy)phenyl]-1-methylpropyl}acetamide]	–

The remaining lines, values behind:

Structure (SMILES)	IC50 (human ACC2) [nM]	also measured
CC(=O)NC(C)CCc1ccc(Oc2ccc(OC3CCOC3)cn2)cc1 (centres unmarked) [Example 20, N-(1-Methyl-3-{4-[5-(tetrahydrofuran-3-yloxy)pyridin-2-yloxy]phenyl}propyl)acetamide]	3600	–
CC(=O)NC(C)CCc1ccc(Oc2ccc(OCC3CCC3)cn2)cc1 (centres unmarked) [Example 12, N-{3-[4-(5-Cyclobutylmethoxypyridin-2-yloxy)phenyl]-1-methylpropyl}acetamide]	50	–
CC(=O)NC(C)CCc1ccc(Oc2ccc(OCc3ccccc3)cn2)cc1 (centres unmarked) [Example 9, N-{3-[4-(5-Benzyloxypyridin-2-yloxy)phenyl]-1-methylpropyl}acetamide]	140	–
CC(=O)NCCC[C@H]1OC[C@H](Oc2ccc(OCc3ccccc3)cc2)CO1 [Example 4, trans-N-{3-[5-(4-benzyloxyphenoxy)-[1,3]dioxan-2-yl]propyl}acetamide]	400	–
CC(=O)NC(C)CCc1ccc(Oc2ccc(OC(C)C)nc2)cc1 (centres unmarked) [Example 33, N-{3-[4-(6-Isopropoxypyridin-3-yloxy)phenyl]-1-methylpropyl}acetamide]	60	–
CC(=O)NC(C)CCc1ccc(Oc2ccc(OC3CCCC3)cn2)cc1 (centres unmarked) [Example 2, N-{3-[4-(5-Cyclopentyloxypyridin-2-yloxy)phenyl]-1-methylpropyl}acetamide]	140	–
CC(=O)N[C@@H](C)CCc1ccc(Oc2ccc(OCc3ccccc3)cn2)cc1 [Example 19, N—{(S)-3-[4-(5-Benzyloxypyridin-2-yloxy)phenyl]-1-methylpropyl}acetamide]	100	–
CC(=O)NCCC[C@H]1OC[C@H](Oc2ccc(OC3CCCC3)cc2)CO1 [Example 6, trans-N-{3-[5-(4-Cyclopentyloxyphenoxy)-[1,3]dioxan-2-yl]propyl}acetamide]	200	–
CC(=O)NC(C)COc1ccc(Oc2ccc(OC(C)C)cn2)cc1 (centres unmarked) [Example 27, N-{2-[4-(5-Isopropoxypyridin-2-yloxy)phenoxy]-1-methylethyl}acetamide]	1300	–
CC(=O)NCCC[C@H]1OC[C@H](Oc2ccc(OCc3ccccc3)cn2)CO1 [Example 17, trans-N-{3-[5-(5-benzyloxypyridin-2-yloxy)-[1,3]dioxan-2-yl]propyl}acetamide]	50	–
CC(=O)NC(C)CCc1ccc(Oc2ncc(OC(C)C)cc2Cl)cc1 (centres unmarked) [Example 32, N-{3-[4-(3-Chloro-5-isopropoxypyridin-2-yloxy)phenyl]-1-methylpropyl}acetamide]	1300	–
CC(=O)NCCC[C@H]1OC[C@H](Oc2ncc(OC(C)C)cc2Cl)CO1 [Example 25, trans-N-{3-[5-(3-chloro-5-isopropoxypyridin-2-yloxy)-[1,3]dioxan-2-yl]propyl}acetamide]	380	–
CC(=O)N[C@@H](C)COc1ccc(Oc2ccc(OC(C)C)cn2)cc1 [Example 29, N—{(S)-2-[4-(5-Isopropoxypyridin-2-yloxy)phenoxy]-1-methylethyl}acetamide]	1200	–
CC(=O)N[C@@H](C)COc1ccc(Oc2ccc(OC(C)C)cc2)cc1 [Example 59, N—{(S)-2-[4-(4-Isopropoxyphenoxy)phenoxy]-1-methylethyl}acetamide, reference compound]	–	IC50 (rACC2): 1500 nM; stimulation of cellular fat (palmitate) oxidation [1]: no effect
CC(=O)NCCC[C@H]1OC[C@H](Oc2ccc(OC(C)C)cn2)CO1 [Example 23, trans-N-{3-[5-(5-isopropoxypyridin-2-yloxy)-[1,3]dioxan-2-yl]-propyl}acetamide]	2000	–
CCCOc1ccc(Oc2ccc(CCC(C)NC(C)=O)cc2)nc1 (centres unmarked) [Example 11, N-{1-Methyl-3-[4-(5-propoxypyridin-2-yloxy)phenyl]propyl}acetamide]	140	–
